The results in this text go back to US20250011288A1 (BRISTOL-MYERS SQUIBB COMPANY, priority 2021, published 2025).

Molecules are shown by their SMILES.

The target of the assay is T1, human RXFP1 (Homo sapiens, UniProt Q9HBX9).
T1 construct: expressed in transfected cells
T1 sequence (Q9HBX9 1-757): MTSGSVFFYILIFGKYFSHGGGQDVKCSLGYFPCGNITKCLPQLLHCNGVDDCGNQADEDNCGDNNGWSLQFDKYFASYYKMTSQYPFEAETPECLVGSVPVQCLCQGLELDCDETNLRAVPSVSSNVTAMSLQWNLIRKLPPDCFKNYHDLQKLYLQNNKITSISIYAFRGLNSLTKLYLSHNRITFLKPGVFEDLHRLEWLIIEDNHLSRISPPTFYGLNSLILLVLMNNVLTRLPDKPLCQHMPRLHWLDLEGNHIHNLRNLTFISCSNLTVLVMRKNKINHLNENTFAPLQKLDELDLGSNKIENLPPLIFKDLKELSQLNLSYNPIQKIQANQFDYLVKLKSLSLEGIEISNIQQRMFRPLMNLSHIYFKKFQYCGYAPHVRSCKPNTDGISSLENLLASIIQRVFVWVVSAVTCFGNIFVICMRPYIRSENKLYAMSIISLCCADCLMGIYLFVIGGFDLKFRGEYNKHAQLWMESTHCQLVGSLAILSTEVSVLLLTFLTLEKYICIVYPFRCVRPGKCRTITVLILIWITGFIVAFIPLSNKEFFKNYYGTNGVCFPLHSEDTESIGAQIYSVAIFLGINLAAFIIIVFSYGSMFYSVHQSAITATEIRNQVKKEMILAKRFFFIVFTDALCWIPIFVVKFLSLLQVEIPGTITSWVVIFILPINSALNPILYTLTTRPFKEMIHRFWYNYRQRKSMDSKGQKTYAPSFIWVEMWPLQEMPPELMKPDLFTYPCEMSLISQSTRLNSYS
Description: human RXFP1 (hRXFP1) HEK293 cAMP assay (HTRF). The following applies: HEK293 cells stably expressing human RXFP1, 30 min at room temperature. Format: cell-based. The gist of the method:
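HEK293 cells stably expressing human RXFP1 (1500 cells/well) in HBSS/20 mM HEPES/0.05% BSA/0.5 mM IBMX, treated with compound (0.010 nM–50 µM final, 2% DMSO) for 30 min at room temperature. Intracellular cAMP read by HTRF; potency from 4-parameter logistic fit of cAMP versus concentration.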
In general terms: Cyclic AMP is a second messenger, typically raised through Gs and lowered through Gi signalling.
On to `COc1ncc(C2=NOC3CC(C(O)C(F)(F)F)CC23)cc1C(=O)N[C@H]1[C@@H](C(=O)Nc2ccc(F)c(C(F)(F)F)c2)[C@H]2CC[C@@H]1/C2=C\C1CCC1` (stereo partly drawn) [Example 122, N-((1R,2R,3S,4R,Z)-7-(cyclobutyl-methylene)-3-((4-fluoro-3-(trifluoromethyl)phenyl)carbamoyl)bicyclo[2.2.1]heptan-2-yl)-2-methoxy-5-(5-(2,2,2-trifluoro-1-hydroxyethyl)-3a,5,6,6a-tetrahydro-4H-cyclopenta[d]isoxazol-3-yl)nicotinamide], for which the 50% effective concentration (EC50) (commonly the concentration needed to bring the measured effect to its halfway point) is 2.6 nM.

As to `CC1(C)Cc2cc(C3=NOC4CC(CO)CC34)cc(C(=O)N[C@@H]3C4CCC(/C4=C/C4CC4)[C@@H]3C(=O)Nc3ccc(F)c(C(F)(F)F)c3)c2O1` (stereo partly shown) [Example 144], a half-maximal effect (EC50) was put at 2 nM.

As for `COc1cc2c(cc1C(=O)N[C@@H]1C3CCC(/C3=C/C3CC3)[C@@H]1C(=O)Nc1ccc(F)c(C(F)(F)F)c1)CN(CCO)CC2` (stereo partly shown) [Example 94], the concentration giving a half-maximal response (EC50) amounted to 1200 nM.

Take `COc1ncc(C2=NOC3CC(C(O)C(F)(F)F)CC23)cc1C(=O)N[C@H]1[C@@H](C(=O)Nc2ccc(F)c(C(F)(F)F)c2)[C@H]2CC[C@@H]1/C2=C\C(C)C` (stereo partly drawn) [Example 127, N-((1R,2R,3S,4R,Z)-3-((4-fluoro-3-(trifluoromethyl)phenyl)carbamoyl)-7-(2-methylpropylidene)bicyclo[2.2.1]heptan-2-yl)-2-methoxy-5-(5-(2,2,2-trifluoro-1-hydroxyethyl)-3a,5,6,6a-tetrahydro-4H-cyclopenta [d]isoxazol-3-yl)nicotinamide]: the response was half-maximal at 4.3 nM (EC50).

Molecule `COc1ncc(C2=NOC3CC(C(N)=O)CC23)cc1C(=O)N[C@H]1[C@@H](C(=O)Nc2ccc(F)c(C(F)(F)F)c2)[C@H]2CC[C@@H]1/C2=C\C1CC1` (single isomer, unassigned) [Example 65] returned a concentration for a half-maximal effect (EC50) of 21 nM.

`COc1cc2c(cc1C(=O)N[C@H]1[C@@H](C(=O)Nc3ccc(F)c(C(F)(F)F)c3)[C@H]3CC[C@@H]1/C3=C\C1CC1)CN(CCS(C)(=O)=O)CC2` [Example 84, N-((1R,2R,3S,4R,Z)-7-(cyclopropylmethylene)-3-((4-fluoro-3-(trifluoromethyl)phenyl)carbamoyl)bicyclo[2.2.1]heptan-2-yl)-6-methoxy-2-(2-(methylsulfonyl)ethyl)-1,2,3,4-tetrahydroisoquinoline-7-carboxamide]: the half-maximal effective concentration (EC50) worked out at 330 nM.

Take `COc1ncc(COC2(CO)CC2)cc1C(=O)N[C@H]1[C@@H](C(=O)Nc2ccc(F)c(C(F)(F)F)c2)[C@H]2CC[C@@H]1/C2=C\C1CC1` [Example 73, N-[(1R,2R,3S, 4R,7Z)-7-(cyclopropyl-methylidene)-3-{[4-fluoro-3-(trifluoromethyl)phenyl]carbamoyl}bicyclo[2.2.1]heptan-2-yl]-5-{[1-(hydroxymethyl)cyclopropoxy]methyl}-2-methoxypyridine-3-carboxamide]: the 50% effective concentration (EC50) amounted to 24 nM.

Take `O=C(NC1CCC1)O[C@@H](c1ccc(F)c(-c2cc(C(=O)N[C@@H]3C4CCC(/C4=C/C(F)(F)F)[C@@H]3C(=O)Nc3ccc(F)c(C(F)(F)F)c3)c(OCCO)cn2)c1)C(F)(F)F` (stereo partly drawn) [Example 46, (1S)-2,2,2-trifluoro-1-[4-fluoro-3-(4-{[(2R,3S,7Z)-3-{[4-fluoro-3-(trifluoromethyl)phenyl]carbamoyl}-7-(2,2,2-trifluoroethylidene)bicyclo[2. 2.1]heptan-2-yl]carbamoyl}-5-(2-hydroxyethoxy)pyridin-2-yl)phenyl]ethyl N-cyclobutyl-carbamate]: the EC50 stood at 65 nM.

Take `COc1cc(C(=O)N[C@@H]2C3CCC(C3=C(C)C)[C@@H]2C(=O)Nc2ccc(F)c(C(F)(F)F)c2)c(OC)nn1` (stereo partly drawn) [Example 4, N-[(2R,3S)-3-{[4-fluoro-3-(trifluoromethyl)phenyl]carbamoyl}-7-(propan-2-ylidene)bicyclo [2.2.1]heptan-2-yl]-3,6-dimethoxy-pyridazine-4-carboxamide]: the EC50 was 5000 nM.

Take `COc1ncc(-c2cnc3n2CC(O)CC3)cc1C(=O)N[C@H]1[C@@H](C(=O)Nc2ccc(F)c(C(F)(F)F)c2)[C@H]2CC[C@@H]1/C2=C\C1CC1` (stereo partly drawn) [Example 102, N-((1R,2R,3S,4R,Z)-7-(cyclopropyl-methylene)-3-((4-fluoro-3-(trifluoromethyl)phenyl)carbamoyl)bicyclo[2.2.1]heptan-2-yl)-5-(6-hydroxy-5,6,7,8-tetrahydroimidazo [1,2-a]pyridin-3-yl)-2-methoxynicotinamide]: it took 2.5 nM to reach a half-maximal effect (EC50).

For the molecule `COc1ncc(C2=NOC3CC(C(OC(=O)Nc4ccccc4)C4CC4)CC23)cc1C(=O)N[C@@H]1C2CCC(/C2=C/C2CCCC2)[C@@H]1C(=O)Nc1ccc(F)c(C(F)(F)F)c1` (stereo partly drawn) [Example 162, [3-(5-{[(2R,3S,7Z)-7-(cyclopentyl-methylidene)-3-{[4-fluoro-3-(trifluoromethyl)phenyl]carbamoyl}bicyclo[2.2.1]heptan-2-yl]carbamoyl}-6-methoxypyridin-3-yl)-3aH,4H,5H,6H, 6aH-cyclopenta[d][1,2]oxazol-5-yl](cyclopropyl) methyl N-phenylcarbamate], it took 4.6 nM to reach a half-maximal effect (EC50).

`COc1ncc(CCCO)cc1C(=O)N[C@@H]1C2CCC(/C2=C/C(F)(F)F)[C@@H]1C(=O)Nc1ccc(F)c(C(F)(F)F)c1` (stereo partly drawn) [Example 50, N-[(2R,3S,7Z)-3-{[4-fluoro-3-(trifluoromethyl)phenyl]carbamoyl}-7-(2,2,2-trifluoroethylidene)bicyclo[2.2.1]heptan-2-yl]-5-(3-hydroxypropyl)-2-methoxypyridine-3-carboxamide]: the response was half-maximal at 129 nM (EC50).

In turn, `COc1ncc(-c2cc([C@H](OC(=O)NC3CC3)C(F)(F)F)ccc2F)cc1C(=O)N[C@H]1[C@@H](C(=O)Nc2ccc(F)c(C(F)(F)F)c2)[C@H]2CC[C@@H]1/C2=C\CCC(F)(F)F` [Example 165, (1S)-2,2,2-trifluoro-1-[4-fluoro-3-(5-{[(1R,2R,3S,4R, 7Z)-3-{[4-fluoro-3-(trifluoromethyl)phenyl]carbamoyl}-7-(4,4,4-trifluorobutylidene)bicyclo[2.2.1]heptan-2-yl]carbamoyl}-6-methoxypyridin-3-yl)phenyl]ethyl N-cyclopropyl-carbamate] registered a concentration giving a half-maximal response (EC50) of 1.2 nM.

Molecule `COc1cn(CCCO)nc1C(=O)N[C@H]1[C@@H](C(=O)Nc2ccc(F)c(C(F)(F)F)c2)[C@H]2CC[C@@H]1/C2=C\C1CC1` [Example 80, N-[(1R,2R,3S, 4R,7Z)-7-(cyclopropyl-methylidene)-3-{[4-fluoro-3-(trifluoromethyl)phenyl]carbamoyl}bicyclo[2.2.1]heptan-2-yl]-1-(3-hydroxypropyl)-4-methoxy-1H-pyrazole-3-carboxamide] gave a concentration for a half-maximal effect (EC50) of 260 nM.

Molecule `Cn1c(=O)c(C(=O)N[C@@H]2C3CCC(/C3=C/C(F)(F)F)[C@@H]2C(=O)Nc2ccc(F)c(C(F)(F)F)c2)cc2ccccc21` (stereo partly drawn) [Example 15, N-[(2R,3S,7Z)-3-{[4-fluoro-3-(trifluoromethyl)phenyl]carbamoyl}-7-(2.2,2-trifluoroethylidene)bicyclo[2. 2.1]heptan-2-yl]-1-methyl-2-oxo-1,2-dihydroquinoline-3-carboxamide] showed a concentration giving a half-maximal response (EC50) of 3500 nM.

The molecule `CC(C)(O)COc1ccc2c(C(=O)N[C@@H]3C4CCC(/C4=C/C(F)(F)F)[C@@H]3C(=O)Nc3ccc(F)c(C(F)(F)F)c3)nn(C(F)F)c2c1` (stereo partly drawn) [Example 57, 1-(difluoromethyl)-N-[(2R,3S,7Z)-3-{[4-fluoro-3-(trifluoromethyl)phenyl]carbamoyl}-7-(2,2,2-trifluoro-ethylidene)bicyclo[2.2.1]heptan-2-yl]-6-(2-hydroxy-2-methylpropoxy)-1H-indazole-3-carboxamide] returned an EC50 of 3900 nM.

In turn, `COc1ncc(-c2cnc3n2CC(O)CC3)cc1C(=O)N[C@H]1[C@@H](C(=O)Nc2ccc(F)c(C(F)(F)F)c2)[C@H]2CC[C@@H]1/C2=C\C1CC1` (stereo partly drawn) [Example 104, N-((1R,2R,3S,4R,Z)-7-(cyclopropyl-methylene)-3-((4-fluoro-3-(trifluoromethyl)phenyl)carbamoyl)bicyclo[2.2.1]heptan-2-yl)-5-(6-hydroxy-5,6,7,8-tetrahydroimidazo[1,2-a]pyridin-3-yl)-2-methoxynicotinamide] showed an EC50 of 4 nM.

Take `COc1cccc2cc(C(=O)N[C@@H]3C4CCC(/C4=C/C(F)(F)F)[C@@H]3C(=O)Nc3ccc(F)c(C(F)(F)F)c3)cnc12` (stereo partly drawn) [Example 14, N-[(2R,3S,7Z)-3-{[4-fluoro-3-(trifluoromethyl)phenyl]carbamoyl}-7-(2,2,2-trifluoroethylidene)bicyclo[2.2.1]heptan-2-yl]-8-methoxyquinoline-3-carboxamide]: the response was half-maximal at 2900 nM (EC50).

`O=C(N[C@@H]1C2CCC(/C2=C/C2CC2)[C@@H]1C(=O)Nc1ccc(F)c(C(F)(F)F)c1)c1cncc(C2=NOC3COCC23)c1` (single isomer, unassigned) [Example 63]: the 50% effective concentration (EC50) was 120 nM.
